25 molecules from patent US12319675B2 (Artax Biopharma Inc., priority 2018, dated 2025) can be followed below.

The subject of data set [1] is CD3 mediated phosphorylation of ZAP70 in Jurkat cells. Put plainly: CD3 mediated phosphorylation of ZAP70 in Jurkat cells (HTRF). It is filed as cell-based. Particulars: Homo sapiens, Jurkat cells stimulated with 20 μg/mL anti-CD3 antibody; for Emax: maximum inhibition, read-out: pZAP70 Inhibition - Maximum Percent Inhibition (% Inhibition); for IC50: read-out: pZAP70 Inhibition IC50. The procedure: Inhibition of CD3 mediated phosphorylation of ZAP70 in Jurkat cells was measured by a cellular based Homogeneous Time-Resolved Fluorescence (HTRF) assay utilizing a Total ZAP-70 HTRF kit.
Briefly, Jurkat cells (˜1.3×10^6 cells/mL) were harvested on the day of experimentation. Cells were washed with PBS and resuspended in Assay Buffer (RPMI 1640 media plus 10% FBS) and counted.
Jurkat cells were seeded in Assay media at a total volume of 4 μL/well (40K cells/well) in a 384-low volume white flat bottom plate. The cells were then incubated at 37° C./5% CO2 for 30 minutes. The cells were then treated in duplicate with test compounds (3×) and reference compounds (3×) in a total volume of 4 μL, respectively. A compound dilution scheme is exemplified in FIG. 1.
The plate was then transferred to an incubator maintained at 37° C./5% CO2 for 2 minutes. Following incubation, cells were stimulated with 20 μg/mL of anti-CD3 antibody (1 mg/mL stock) and assay media was used to bring the total well volume 4 μL/well. The plate was then transferred to the incubator maintained at 37° C./5% CO2 for 2.5 minutes. Following incubation, 4 μL of lysis buffer (4×) provided in the kit was added to each well. The plate was then incubated at RT for 1 hour with gentle shaking. Following incubation, 4 μL of detection mix was added to each well and the plate was sealed with a plate sealer and left overnight at RT in the dark.
The Envision reader was set-up for Eu^3+ cryptate and fluorescence emission was read at two different wavelengths (620 nm and 665 nm). • Excitation filter: UV2(TRF) 320 nm • Emission filter: 665 nm • 2nd Emission filter: Europium 615 nm • Measurement height (mm): 6.5 • Excitation light (%): 100 • Delay (μs): 50 • Window time (μs): 400 • Time between flashes (μs): 2000 • Number of flashes: 100 • Number of flashes for 2nd detector: 100
The data is represented by the signal form the two wavelengths:
The ratio of the signal is calculated for each individual well:
The data was plotted using Graph Pad Prism. The significance between untreated vs. treated groups was assessed by One-way ANOVA and Bonferroni posttest comparing all columns in the graph.
ZAP70 IC50 results are shown in Table 6 for select compounds of the invention. The compound numbers correspond to the compound numbers in Table 1. […] “ND” indicates not determined.
ZAP70 percent maximum inhibition results are shown in Table 7 for select compounds of the invention. The compound numbers correspond to the compound numbers in Table 1.

Data set [2] in a line: Microsomal stability assay, mouse. In kind it is in vitro ADME. Particulars: mouse microsomes, read-out: Microsomal Stability (T1/2 min) Mouse. The procedure: (§1) Microsomal stability assays were performed using mouse, rat, and human […] according to methods well-known in the art. Microsomal stability results are shown in Table 2 for selected compounds of the invention. The compound numbers correspond to the compound numbers in Table 1. […] “N/A” indicates not assayed.

The nature of data set [3]: Microsomal stability assay, human. In kind it is in vitro ADME. Particulars: human microsomes, read-out: Microsomal Stability (T1/2 min) Human. The procedure:
as §1

Data set [4] is described as follows: Microsomal stability assay, rat. It is filed as in vitro ADME. Conditions: rat microsomes, read-out: Microsomal Stability (T1/2 min) Rat. Here is the method:
as §1

Where only a bound is given, the exact number is not on record here.

With `CN1CCN(CC2=C(c3ccc(C(F)(F)F)cc3)c3cc(OCCC(=O)O)ccc3OC2)CC1` [Compound I-69], in data set [1], the Emax is over 50% and the IC50 fell in the range of 1 to 10 nM.

With `Fc1ccc(C2=C(CN3CCCC3)COc3ccc(F)cc32)cc1` [Compound I-63, 1-((6-fluoro-4-(4-fluorophenyl)-2H-chromen-3-yl)methyl)pyrrolidine], the half-life is 10 to 30 min in data set [2], over 30 min in data set [3] and under 10 min in data set [4]. Moreover, the Emax in data set [1] fell in the range of 30 to 40%. Besides, the IC50 in data set [1] fell in the range of 1 to 10 nM.

For the molecule `O=c1[nH]c(CCOc2ccc3c(c2)C(c2ccc(F)cc2)=C(CN2CCCC2)CO3)no1` [Compound I-37, 3-(2-((4-(4-fluorophenyl)-3-(pyrrolidin-1-ylmethyl)-2H-chromen-6-yl)oxy)ethyl)-1,2,4-oxadiazol-5(2H)-one], the half-life in data set [2] is over 30 min; in data set [3] it was over 30 min; in data set [4], 10 to 30 min. Besides, the Emax in data set [1] was 30 to 40%. In addition, in data set [1], the half-maximal inhibitory concentration (IC50) lay in the range of 1 to 10 nM.

For `CN1CCN(C(=O)C2=C(c3ccc(F)cc3)c3cc(OC4CC4)ccc3OC2)CC1` [Compound I-27], the half-life in data set [2], in data set [3] and in data set [4] was under 10 min in each case. Also, the Emax in data set [1] is at most 30%. The IC50 in data set [1] was over 50 nM.

Take `CN1CCN(CC2=C(c3ccc(F)cc3)c3cc(OCCC(=O)O)ccc3OC2)CC1` [Compound I-64]: in data set [1], the Emax was in the range of 30 to 40% and the 50% inhibitory concentration (IC50) lay in the range of 1 to 10 nM.

Regarding `CN1CCN(C(=O)C2=C(c3ccc(F)cc3)c3cc(F)ccc3OC2)CC1` [Compound I-58, (6-fluoro-4-(4-fluorophenyl)-2H-chromen-3-yl)(4-methylpiperazin-1-yl)methanone], the half-life in data set [2] is under 10 min; in data set [3] it was over 30 min; in data set [4] it was under 10 min. Further, the Emax in data set [1] fell in the range of 30 to 40%. Moreover, the IC50 in data set [1] is over 50 nM.

For the molecule `O=C(O)CCCOc1ccc2c(c1)C(c1ccc(F)cc1)=C(CN1CCCC1)CO2` [Compound I-67], in data set [1], the Emax is over 50% and the IC50 was 10 to 50 nM.

As to `CC(C)(COc1ccc2c(c1)C(c1ccc(C(F)(F)F)cc1)=C(CN1CCCC1)CO2)C(=O)O` [Compound I-81], in data set [1], the Emax is over 50% and the IC50 is 1 to 10 nM.

For the molecule `CC(C)(COc1ccc2c(c1)C(c1ccc(F)cc1)=C(CN1CCOCC1)CO2)C(=O)O` [Compound I-80], in data set [1], the Emax was over 50% and the IC50 lay in the range of 1 to 10 nM.

With `CN1CCN(CC2=C(c3ccc(F)cc3)c3cc(F)ccc3OC2)CC1` [Compound I-59, 1-((6-fluoro-4-(4-fluorophenyl)-2H-chromen-3-yl)methyl)-4-methylpiperazine], the half-life in data set [2] was 10 to 30 min; in data set [3] it was over 30 min; in data set [4], under 10 min. Further, the Emax in data set [1] fell in the range of 30 to 40%. For the same molecule, the 50% inhibitory concentration (IC50) in data set [1] was under 1 nM.

On to `O=C(C1=C(c2ccc(F)cc2)c2cc(OC(F)(F)F)ccc2OC1)N1CCCC1` [Compound I-7], for which the half-life in data set [2] is under 10 min; in data set [3], 10 to 30 min; in data set [4], under 10 min.

With `CN1CCN(CC2=C(c3ccc(F)cc3)c3cc(OC(F)(F)F)ccc3OC2)CC1` [Compound I-11, 1-((4-(4-fluorophenyl)-6-(trifluoromethoxy)-2H-chromen-3-yl)methyl)-4-methylpiperazine], the half-life in data set [2], in data set [3] and in data set [4] was over 30 min in each case. In addition, the Emax in data set [1] is at most 30%. Further, the IC50 in data set [1] was in the range of 1 to 10 nM.

As for `CC(C)(O)CCOc1ccc2c(c1)C(c1ccc(F)cc1)=C(C(=O)N1CCCC1)CO2` [Compound I-42, (4-(4-fluorophenyl)-6-(3-hydroxy-3-methylbutoxy)-2H-chromen-3-yl)(pyrrolidin-1-yl)methanone], the half-life in data set [2] was under 10 min; in data set [3] it was under 10 min; in data set [4], 10 to 30 min. Further, the Emax in data set [1] is at most 30%. For the same molecule, the concentration for half-maximal inhibition (IC50) in data set [1] was over 50 nM.

As for `O=C(C1=C(c2ccc(F)cc2)c2cc(OCCN3CCCCC3)ccc2OC1)N1CCCC1` [Compound I-41], the half-life in data set [2] was over 30 min; in data set [3], under 10 min; in data set [4], over 30 min. In data set [1], the Emax was in the range of 30 to 40%. In addition, the IC50 in data set [1] lay in the range of 1 to 10 nM.

As to `O=C(O)CCOc1ccc2c(c1)C(c1ccc(C(F)(F)F)cc1)=C(CN1CCCC1)CO2` [Compound I-68], in data set [1], the Emax was over 50% and the IC50 was under 1 nM.

On to `Fc1ccc(C2=C(CN3CCCC3)COc3ccc(OCCN4CCCCC4)cc32)cc1` [Compound I-39, 1-(2-((4-(4-fluorophenyl)-3-(pyrrolidin-1-ylmethyl)-2H-chromen-6-yl)oxy)ethyl)piperidine], for which the half-life in data set [2], in data set [3] and in data set [4] was over 30 min throughout. The Emax in data set [1] is at most 30%. In data set [1], the IC50 fell in the range of 1 to 10 nM.

For `CN(C)CCNCC1=C(c2ccc(C(F)(F)F)cc2)c2cc(OCCC(=O)O)ccc2OC1` [Compound I-70], in data set [1], the Emax was 40 to 50% and the IC50 was 1 to 10 nM.

For `CC(C)(COc1ccc2c(c1)C(c1ccc(F)cc1)=C(CN1CCCC1)CO2)C(=O)O` [Compound I-66], in data set [1], the Emax is over 50% and the half-inhibitory concentration (IC50) lay in the range of 1 to 10 nM.

As to `CN(C)CCNCC1=C(c2ccc(F)cc2)c2cc(F)ccc2OC1` [Compound I-61, N′-((6-fluoro-4-(4-fluorophenyl)-2H-chromen-3-yl)methyl)-N^2,N^2-dimethylethane-1,2-diamine], the values for the half-life in data set [2], in data set [3] and in data set [4] were under 10 min, 10 to 30 min and under 10 min, respectively. In addition, the Emax in data set [1] lay within 40 to 50%. For the same molecule, the half-maximal inhibitory concentration (IC50) in data set [1] is 1 to 10 nM.

Consider `N/C(CCOc1ccc2c(c1)C(c1ccc(F)cc1)=C(CN1CCCC1)CO2)=N\O` [Compound I-36, 3-((4-(4-fluorophenyl)-3-(pyrrolidin-1-ylmethyl)-2H-chromen-6-yl)oxy)-N-hydroxypropanimidamide], for which the half-life is 10 to 30 min in data set [2], over 30 min in data set [3] and 10 to 30 min in data set [4]. In addition, the Emax in data set [1] lay in the range of 40 to 50%. For the same molecule, the IC50 in data set [1] was under 1 nM.

`O=C(C1=C(c2ccc(F)cc2)c2cc(F)ccc2OC1)N1CCCC1` [Compound I-62]: in data set [1], the Emax fell in the range of 30 to 40% and the IC50 was in the range of 1 to 10 nM.

With `CC(C)(O)CCOc1ccc2c(c1)C(c1ccc(F)cc1)=C(CN1CCCC1)CO2` [Compound I-35, 4-((4-(4-fluorophenyl)-3-(pyrrolidin-1-ylmethyl)-2H-chromen-6-yl)oxy)-2-methylbutan-2-ol], the half-life is 10 to 30 min in data set [2], over 30 min in data set [3] and under 10 min in data set [4]. Further, the Emax in data set [1] is at most 30%. Besides, the IC50 in data set [1] lay in the range of 1 to 10 nM.

Take `CN1CCN(CCOc2ccc3c(c2)C(c2ccc(F)cc2)=C(C(=O)N2CCCC2)CO3)CC1` [Compound I-43]: the results for the half-life in data set [2], in data set [3] and in data set [4] were under 10 min, under 10 min and over 30 min, respectively. The Emax in data set [1] lay within 30 to 40%. Moreover, the concentration for half-maximal inhibition (IC50) in data set [1] was 10 to 50 nM.

On to `CC(C)(COc1ccc2c(c1)C(c1ccc(C(F)(F)F)cc1)=C(CN1CCOCC1)CO2)C(=O)O` [Compound I-79], for which, in data set [1], the Emax was over 50% and the IC50 was in the range of 1 to 10 nM.

`Fc1ccc(C2=C(CN3CCCC3)COc3ccc(OCCc4nnn[nH]4)cc32)cc1` [Compound I-34, 5-(2-((4-(4-fluorophenyl)-3-(pyrrolidin-1-ylmethyl)-2H-chromen-6-yl)oxy)ethyl)-1H-tetrazole]: the half-life in data set [2], in data set [3] and in data set [4] was over 30 min throughout. For the same molecule, in data set [1], the Emax lay in the range of 30 to 40%. Further, the IC50 in data set [1] is under 1 nM.

Usually IC50 stands for the concentration that gives 50% inhibition.
